Data: US8597693B2, “Pharmaceutical composition with immunomodulating function” (Industrial Technology Research Institute, priority 2010, dated 2013)
Converted amounts (≈) assume the structure as drawn.

Experiments:
[1] = tested on: TNF-α; assay: TNBS enteritis mouse model, TNF-α in colon infusion; type: in vivo, BABL/c mice; details: 0.6 mg/kg fed + 1.75 mg of TNBS; colon infusion after 48 hours; negative value = enhanced excretion
Excerpt: (§1) The BABL/c mice were categorized into 4 groups. Each group had 6 […].

[2] = tested on: IL-6; assay: TNBS enteritis mouse model, IL-6 in colon infusion; type: in vivo, BABL/c mice; details: 0.6 mg/kg fed + 1.75 mg of TNBS; colon infusion after 48 hours; negative value = enhanced excretion
Excerpt: as §1

[3] = tested on: carrageenan induced hindpaw edema; assay: Carrageenan induced hindpaw edema in a rat model; type: in vivo, Long-Evan rats; details: 3 mg/kg fed 1 hour before carrageenan (positive control), left hindpaw volume
Experimental: Long-Evan rats were fed with the extract (a) in Example 5 (i) in an amount of 250 mg/kg, 500 mg/kg, 1000 mg/kg, respectively. The positive control was fed with 3 mg/kg of indomethacin (NSAID). The negative control was fed with 10 ml/kg of 2% Tween 80 as a carrier. After 1 hour, the rats were injected 0.1 ml of 1% carrageenan on the left hindpaw. The volume of the rat's left hindpaw was measured by plethysmometer (Stoelting) at the 0, 1.5th, and 3rd hour after injection. The inhibition was calculated by the formula: Inhibition(%)=(Nt−Nv)/Nv×100
In the formula, Nt represents the left hindpaw volume of the rat fed with the ethanol extract; Nv represents the left hindpaw of the rat fed with the carrier.

[4] = tested on: TNF-α; assay: Inhibition of TNF-α excretion in LPS-stimulated U937 cells; type: cell-based; details: Homo sapiens, U-937; PMA-activated U937, 30 minutes preincubation, LPS 4 hours, ELISA of supernatant
Experimental: The cell line, U937 (human monocyte cell line), was incubated in RPMI medium containing 50 ng/ml PMA (phorbol 12-myristate 13-acetate) (Sigma) and 10% fetal bovine serum (Moor et. al., Roswell Park Memorial Institute) for 24 hours. The cell line was then moved to the RPMI medium without PMA for further 48 hours. The activated U937 was seeded into a 96-well plate in a concentration of 1.6×10^5 cell/well. The wells were added 12.5 μg/ml, 25 μg/ml, 50 μg/ml and 100 μg/ml of kaerophyllin and 1 μg/ml, 3 μg/ml, 10 μg/ml and 30 μg/ml of isokaerphyllin and 10 μl of buffer, respectively. Each well was adjusted to a final volume of 190 μl. The plate was reacted under 37° C. for 30 minutes. Each well was added 10 μl of 20 μg/ml LPS to stimulate cells. After 4 hours under 37° C., the plate was centrifuged to collect the supernatants.
The amount of TNF-α in the supernatant was measured by ELISA (R&D System®) based on the control (DMSO). Meanwhile, the cell viability was measured by MTT assay (Sigma).

[5] = tested on: IL-6; assay: Inhibition of IL-6 excretion in LPS-stimulated U937 cells; type: cell-based; details: Homo sapiens, U-937; PMA-activated U937, 30 minutes preincubation, LPS 16-18 hours, ELISA of supernatant
Experimental: The cell line, U937, was cultured like Example 13. The activated U937 was then seeded in a 96-well plate in a concentration of 1.6×10^5 cell/well. The wells were added 6.3 μg/ml, 12.5 μg/ml, 25 μg/ml and 50 μg/ml of kaerophyllin and 3.8 μg/ml, 7.5 μg/ml, 15 μg/ml and 30 μg/ml of isokaerphyllin and 10 μl of buffer, respectively. Each well was adjusted to a final volume of 190 μl. The plate was put under 37° C. for 30 minutes. Each well was added 10 μl of 20 μg/ml LPS to stimulate cells. After 16-18 hours under 37° C., the plate was centrifuged to collect the supernatants.
The amount of IL-6 in the supernatant was measured by ELISA (R&D System®) based on the control (DMSO). Meanwhile, the cell viability was measured by MTT assay (Sigma).

## C[C@@H]1C[C@H]2[C@@H]3CCC4=CC(=O)C=C[C@]4(C)[C@@]3(F)[C@@H](O)C[C@]2(C)[C@@]1(O)C(=O)CO [DEX, dexamethasone]
[1]
  Inhibition of TNF-α (%): 9%
[2]
  Inhibition of IL-6 (%): −55%

## COc1ccc2c(c1)c(CC(=O)O)c(C)n2C(=O)c1ccc(Cl)cc1 [indomethacin]
[3]; 0 hour
  Inhibition at 0 hour (%): 0%
[3]; 1.5th hour
  Inhibition at the 1.5th hour (%): 21%
[3]; 3rd hour
  Inhibition at the 3rd hour (%): 52%

## COc1ccc(/C=C2\C(=O)OC[C@@H]2Cc2ccc3c(c2)OCO3)cc1OC [isokaerophyllin, cis-(3,4-dimethoxybenzylidene)-β-(3,4-methylenedioxylbenzyl)-γ-butyrolactone]
[4]
  IC50: 18 ± 4 µg/mL (≈ 48.9 µM)
[5]
  IC50: 24 ± 6 µg/mL (≈ 65.1 µM)
